# Laboratory results as given in patent US20250324971A1, “HERBICIDAL DERIVATIVES” (SYNGENTA CROP PROTECTION AG, priority 2022, published 2025).
# What was measured:
# Assay type in all cases: in vivo
# [1] = test system: Ipomoea hederacea (IPOHE); assay: Pre-Emergence Test (herbicidal, glasshouse pots); settings: evaluated after 13 days, five-point scale
# [2] = test system: Amaranthus palmeri (AMAPA); assay: Pre-Emergence Test (herbicidal, glasshouse pots); settings: evaluated after 13 days, five-point scale
# [3] = test system: Echinochloa crus-galli (ECHCG); assay: Pre-Emergence Test (herbicidal, glasshouse pots); settings: evaluated after 13 days, five-point scale
# [4] = test system: Ipomoea hederacea (IPOHE); assay: Post-Emergence Test (herbicidal, glasshouse pots); settings: evaluated after 13 days
# How it was run: (§1)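 Damage after 13 days is given as a five-point score, where 5 means 81-100% and 1 means 0-20% injury. Seed-sown pots were treated by spray with the technical ingredient in aqueous acetone (50:50) with 0.5% Tween 20, dose expressed in g/ha.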
# [5] = test system: Echinochloa crus-galli (ECHCG); assay: Post-Emergence Test (herbicidal, glasshouse pots); settings: evaluated after 13 days
# How it was run: as §1
# Zea mays (ZEAMX) [6] = assay: Post-Emergence Test (herbicidal, glasshouse pots); settings: evaluated after 13 days
# How it was run: as §1
# [7] = test system: Amaranthus palmeri (AMAPA); assay: Post-Emergence Test (herbicidal, glasshouse pots); settings: evaluated after 13 days
# How it was run: as §1
# Setaria faberi (SETFA) [8] = assay: Post-Emergence Test (herbicidal, glasshouse pots); settings: evaluated after 13 days
# How it was run: as §1
# [9] = test system: Amaranthus retoflexus (AMARE); assay: Post-Emergence Test (herbicidal, glasshouse pots); settings: evaluated after 13 days
# How it was run: as §1
# [10] = test system: Amaranthus retoflexus (AMARE); assay: Pre-Emergence Test (herbicidal, glasshouse pots); settings: evaluated after 13 days, five-point scale
# Zea mays (ZEAMX) [11] = assay: Pre-Emergence Test (herbicidal, glasshouse pots); settings: evaluated after 13 days, five-point scale
# Setaria faberi (SETFA) [12] = assay: Pre-Emergence Test (herbicidal, glasshouse pots); settings: evaluated after 13 days, five-point scale
Structure (SMILES),"percentage damage caused to the plant, IPHOE ([1]; rate 250 g/ha)","percentage damage caused to the plant, AMAPA ([2]; rate 250 g/ha)","percentage damage caused to the plant, ECHCG ([3]; rate 250 g/ha)",Post-Emergence Test IPHOE percentage damage (five-point scale) ([4]; rate 250 g/ha),Post-Emergence Test ECHCG percentage damage (five-point scale) ([5]; rate 250 g/ha),Post-Emergence Test ZEAMX percentage damage (five-point scale) (Zea mays (ZEAMX) [6]; rate 250 g/ha),Post-Emergence Test AMAPA percentage damage (five-point scale) ([7]; rate 250 g/ha),Post-Emergence Test SETFA percentage damage (five-point scale) (Setaria faberi (SETFA) [8]; rate 250 g/ha),Post-Emergence Test AMARE percentage damage (five-point scale) ([9]; rate 250 g/ha),"percentage damage caused to the plant, AMARE ([10]; rate 250 g/ha)","percentage damage caused to the plant, ZEAMX (Zea mays (ZEAMX) [11]; rate 250 g/ha)","percentage damage caused to the plant, SETFA (Setaria faberi (SETFA) [12]; rate 250 g/ha)",also measured
"CCn1c(OC2CC2)cc(=O)c(C(=O)O)c1-c1ccc(Cl)c(Cl)c1 [Compound 45, 6-(cyclopropoxy)-2-(3,4-dichlorophenyl)-1-ethyl-4-oxo-pyridine-3-carboxylic acid]",0,1 (1=0-20%),0,3 (3=41-60%),2 (2=21-40%),1 (1=0-20%),2 (2=21-40%),3 (3=41-60%),1 (1=0-20%),2 (2=21-40%),0,1 (1=0-20%),
"CCn1c(Oc2cc(C)on2)cc(=O)c(C(=O)O)c1-c1ccc(Cl)c(Cl)c1 [Compound 46, 2-(3,4-dichlorophenyl)-1-ethyl-6-(5-methylisoxazol-3-yl)oxy-4-oxo-pyridine-3-carboxylic acid]",2 (2=21-40%),1 (1=0-20%),1 (1=0-20%),3 (3=41-60%),1 (1=0-20%),0,0,0,2 (2=21-40%),2 (2=21-40%),0,1 (1=0-20%),
"C#CC(C)Oc1cc(=O)c(C(=O)O)c(-c2ccc(Cl)c(Cl)c2)n1CC (stereo not drawn) [Compound 49, 2-(3,4-dichlorophenyl)-1-ethyl-6-(1-methylprop-2-ynoxy)-4-oxo-pyridine-3-carboxylic acid]",1 (1=0-20%),0,1 (1=0-20%),1 (1=0-20%),0,1 (1=0-20%),4 (4=61-80%),0,1 (1=0-20%),1 (1=0-20%),0,1 (1=0-20%),
"CCn1c(Oc2ccc(F)nc2)cc(=O)c(C(=O)O)c1-c1ccc(Cl)c(Cl)c1 [Compound 52, 2-(3,4-dichlorophenyl)-1-ethyl-6-[(6-fluoro-3-pyridyl)oxy]-4-oxo-pyridine-3-carboxylic acid]",3 (3=41-60%),2 (2=21-40%),4 (4=61-80%),4 (4=61-80%),4 (4=61-80%),4 (4=61-80%),1 (1=0-20%),4 (4=61-80%),4 (4=61-80%),3 (3=41-60%),5 (5=81-100%),5 (5=81-100%),
"CCn1c(Oc2ccc(C)cc2)cc(=O)c(C(=O)O)c1-c1ccc(Cl)c(Cl)c1 [Compound 53, 2-(3,4-dichlorophenyl)-1-ethyl-6-(4-methylphenoxy)-4-oxo-pyridine-3-carboxylic acid]",1 (1=0-20%),0,0,4 (4=61-80%),0,1 (1=0-20%),4 (4=61-80%),1 (1=0-20%),3 (3=41-60%),2 (2=21-40%),0,1 (1=0-20%),
"CCn1c(Oc2ccnc(Cl)c2)cc(=O)c(C(=O)O)c1-c1ccc(Cl)c(Cl)c1 [Compound 54, 6-[(2-chloro-4-pyridyl)oxy]-2-(3,4-dichlorophenyl)-1-ethyl-4-oxo-pyridine-3-carboxylic acid]",4 (4=61-80%),1 (1=0-20%),4 (4=61-80%),4 (4=61-80%),3 (3=41-60%),4 (4=61-80%),3 (3=41-60%),3 (3=41-60%),4 (4=61-80%),3 (3=41-60%),1 (1=0-20%),5 (5=81-100%),
"CCn1c(Oc2cc(C3CC3)on2)cc(=O)c(C(=O)O)c1-c1ccc(Cl)c(Cl)c1 [Compound 55, 6-(5-cyclopropylisoxazol-3-yl)oxy-2-(3,4-dichlorophenyl)-1-ethyl-4-oxo-pyridine-3-carboxylic acid]",0,0,1 (1=0-20%),3 (3=41-60%),2 (2=21-40%),2 (2=21-40%),4 (4=61-80%),2 (2=21-40%),4 (4=61-80%),1 (1=0-20%),0,1 (1=0-20%),
"CCn1c(Oc2cc(C(F)F)n(C)n2)cc(=O)c(C(=O)O)c1-c1ccc(Cl)c(Cl)c1 [Compound 56, 2-(3,4-dichlorophenyl)-6-[5-(difluoromethyl)-1-methyl-pyrazol-3-yl]oxy-1-ethyl-4-oxo-pyridine-3-carboxylic acid]",,,,,,,,,,,,,"percentage damage caused to the plant, IPHOE ([1]; rate 62.5 g/ha): 0; percentage damage caused to the plant, AMAPA ([2]; rate 62.5 g/ha): 0; percentage damage caused to the plant, ECHCG ([3]; rate 62.5 g/ha): 0; Post-Emergence Test IPHOE percentage damage (five-point scale) ([4]; rate 62.5 g/ha): 3 (3=41-60%); Post-Emergence Test ECHCG percentage damage (five-point scale) ([5]; rate 62.5 g/ha): 2 (2=21-40%); Post-Emergence Test ZEAMX percentage damage (five-point scale) (Zea mays (ZEAMX) [6]; rate 62.5 g/ha): 0; Post-Emergence Test AMAPA percentage damage (five-point scale) ([7]; rate 62.5 g/ha): 3 (3=41-60%); Post-Emergence Test SETFA percentage damage (five-point scale) (Setaria faberi (SETFA) [8]; rate 62.5 g/ha): 3 (3=41-60%); Post-Emergence Test AMARE percentage damage (five-point scale) ([9]; rate 62.5 g/ha): 2 (2=21-40%); percentage damage caused to the plant, AMARE ([10]; rate 62.5 g/ha): 0; percentage damage caused to the plant, ZEAMX (Zea mays (ZEAMX) [11]; rate 62.5 g/ha): 0; percentage damage caused to the plant, SETFA (Setaria faberi (SETFA) [12]; rate 62.5 g/ha): 1 (1=0-20%)"
"CCn1ccc(Oc2cc(=O)c(C(=O)O)c(-c3ccc(Cl)c(Cl)c3)n2CC)n1 [Compound 57, 2-(3,4-dichlorophenyl)-1-ethyl-6-(1-ethylpyrazol-3-yl)oxy-4-oxo-pyridine-3-carboxylic acid]",4 (4=61-80%),3 (3=41-60%),4 (4=61-80%),4 (4=61-80%),4 (4=61-80%),4 (4=61-80%),4 (4=61-80%),4 (4=61-80%),4 (4=61-80%),4 (4=61-80%),5 (5=81-100%),5 (5=81-100%),
"CCn1c(Oc2ccn(C3CC3)n2)cc(=O)c(C(=O)O)c1-c1ccc(Cl)c(Cl)c1 [Compound 58, 6-(1-cyclopropylpyrazol-3-yl)oxy-2-(3,4-dichlorophenyl)-1-ethyl-4-oxo-pyridine-3-carboxylic acid]",5 (5=81-100%),3 (3=41-60%),5 (5=81-100%),4 (4=61-80%),3 (3=41-60%),4 (4=61-80%),3 (3=41-60%),3 (3=41-60%),4 (4=61-80%),4 (4=61-80%),5 (5=81-100%),5 (5=81-100%),
